The values below come from patent US11325937B2, “Glycoside compound and preparation method therefor, composition, application, and intermediate” (SHANGHAI HUTCHISON PHARMACEUTICALS LIMITED, priority 2018, dated 2022).

The subject of experiment [1] is VEGF-A mRNA. The experiment in a line: Sponge implanted animal model of inflammatory angiogenesis: VEGF-A mRNA expression. The format is in vivo, male C57/BL6 mice. The following applies: 2 weeks; for activity in promoting VEGF-A mRNA expression compared with Salvianolate (in words): positive control Salvianolate 60 mg/kg/d, sponge implanted mice. The text has this:
The target pro-angiogenic compounds TG-052, TG-053, TG-054, TG-028, and TG-055 obtained in Effect Example 1 that perform well at the cellular level were further screened for the active molecules that promote VEGF-A mRNA expression in the “sponge implanted animal model” of inflammatory angiogenesis. […] This model can well reflect the expression of VEGF-A mRNA in macrophages recruited around inflammation.
A sponge implanted mouse model was established following the method as described in Zhang J, Modi Y, and Yarovinsky T, et al. Macrophage β2 integrin-mediated, HuR-dependent stabilization of angiogenic factor-encoding mRNAs in inflammatory angiogenesis. [J]. American Journal of Pathology, 2012. 180(4): 1751-1760. The mice used in the present invention was male C57/BL6 mice aged 6-8 weeks and weighing 20-25 g, purchased from Shanghai SLAC Laboratory Animal Co., Ltd, Production License No: SCXK (Shanghai) 2013-0016. The compound screened in Effect Example 1 was weighed according to the amount intended to be used in two weeks, and then mixed with a gel matrix and a solvent to prepare a sustained-release gel of the compound (see Patent Application No.: CN201610168493.9 for the details of the preparation method of the sustained-release gel and the model establishment and detection methods). The specific steps were as follows. A certain amount of the compound obtained in Effect Example 1 was weighed into a 1.5 mL EP tube, and then a certain amount of poly-L-lactic acid (PLLA) with a weight average molecular weight of less than 10,000 was weighed and mixed with the compound (at a weight ratio of the compound to PLLA of 0.5:1 to 2:1). Finally a certain amount of DMSO (less than 100 microliters) was added, spun, mixed well, and then sealed with a sealing film. After continuous ultrasonication at 200 W and 25° C. for 5 h, a sustained-release gel of the compound was obtained, which was stored at 4° C. for later use.
The prepared sustained-release gel can release the drug completely within 2 weeks. The sustained-release gel and sponge were both subcutaneously implanted in the mice at the back. After 2 weeks, the sponge was taken out, and the residual tissue and fur were removed. The sponge was transferred to a cell culture plate containing 10 mL of DMEM medium containing collagenase (Collagenase:DMEM=10 mg/10 mL), cut, and incubated for 1 h in a cell incubator. Then the culture medium containing sponge debris was filtered, and the resulting filtrate was centrifuged. The supernatant was discarded, and 500 μL of Trizol reagent was added to the pellet, and mixed uniformly by blowing. Then the liquid was transferred to a 1.5 mL EP tube, and stored at −80° C. RNA was extracted according to a conventional method, and the RNA concentration was determined using a microvolume nucleic acid and protein analyzer (Nanodrop2000c). The required volume V of RNA was calculated according to the RNA concentration, and the RNA reverse transcription reaction system was prepared according to Table 1. Then RNA reverse transcription (cDNA synthesis) was carried out according to the conditions described in Table 2. The resulting cDNA was used to prepare a fluorescence quantitative qPCR reaction solution according to Table 3. The fluorescence quantitative qPCR reaction conditions were set according to Table 4, and the fluorescence quantitative PCR reaction was performed using cDNA from the reverse transcription reaction as a template. The relative expression level 2^−ΔΔCt of the target gene was calculated from the Ct value of each sample with the blank group as a control and β-Actin as an internal reference. The expression level of VEGF-A mRNA in the cells extracted from the sponge was observed after 2 weeks. […]

The test system of experiment [2] is rats with middle cerebral artery occlusion (MCAO). The experiment in a line: Acute cerebral infarction model in rats with middle cerebral artery occlusion (MCAO). The format is in vivo, male SD rats. The following applies: for ED50: Rattus norvegicus, ip, 72 h, intraperitoneal injection, TTC staining after 3 days, read-out: ED50 for infarction inhibition rate (%); for Longa nerve scoring, protective effect on nerves (in words): FIG. 5. The text has this: After obtaining the active molecules that can promote the expression of VEGF-A mRNA in the animal model of inflammatory angiogenesis, a rat model of cerebral infarction was used for further verification. Following the method as described in Longa, E. Z., Longa, E. Z., Weinstein, P. R., Carlson, S. & Commin, R. Reversible middle cerebral artery occlusion without craniectomy in rats. [J]. Stroke, 1989. 1: 84-91, an acute cerebral infarction model was established in rats with middle cerebral artery occlusion (MCAO); and following the method as described in C. dela Torre, T. Fortin, G. A. S. Park, K. S. Butler, P. Kozlowski, B. A. Pappas, H. de Socarraz, J. K. Saunders and M. T. Richard. [J]. Brain Research, 1992. 582:186-195, a chronic cerebral ischemia model was established in rats with permanent ligation of bilateral common carotid arteries (2VO). The inhibition on cerebral infarction and neuroprotection for brain injury of the active molecules screened in Effect Example 2 were verified.
The control drugs were: Edaravone (purchased from Zhejiang Shengtong Biotechnology Co., Ltd.), Clopidogrel bisulfate (purchased from Wuhan Yuancheng Gongchuang Technology Co., Ltd.), and Salvianolate (purchased from Henan Provincial People's Hospital). Clopidogrel bisulfate is a platelet aggregation inhibitor, and Edaravone is a brain protectant (free radical scavenger). The MCAO model of rats was made by the thread occlusion method. The rats used in this effect example were male SD rats weighing 280-320 grams, purchased from Shanghai SLAC Laboratory Animal Co., Ltd. Five SD (Sprague Dawley) rats in each group were administered by intraperitoneal injection, 2 h before surgery, and every 24 h after modeling.
Three days later, the brain was taken, and the rat brain was stained with TTC (2,3,5-triphenyltetrazolium chloride, to detect the cell viability) and then photographed. Infarction rate (%)=(Non-infarction area of right brain section−non-infarction area of left brain section)/total area of brain section*100%. According to t tests, *P<0.05, **P<0.01, ***P<0.001 compared with the model group (MCAO). Infarction inhibition rate (%) at different doses=(infarction rate of model group-infarction rate of treatment group)/infarction rate of model group*100%. The infarction inhibition rate at different doses was plotted, and the ED50 of the drug was calculated.
Moreover, the body weight of the rats was recorded. The rate of body weight change was calculated according to a formula: Rate of body weight change (%)=(final weight-initial weight)/[…].
Three days after the acute cerebral infarction model was established in rats with MCAO, the test rats were scored for neurological function according to the Longa nerve scoring standard.
Three days after the acute cerebral infarction model of MCAO was established in rats, the intact brain tissue was taken out, olfactory bulb and the brain tissue that is 4 mm in front of the frontal pole was removed, and the immediately adjacent brain tissue of 2 mm thick was taken for water content measurement in the brain. The water content in brain tissue is calculated by the formula: (WW−DW)/WW×100%, where WW is the wet weight and DW is the dry weight. Three days after the acute cerebral infarction model of MCAO was established in rats, the brain tissue was stained with Evans Blue (EB, a commonly used azo dye preparation) to evaluate the permeability across the blood-brain barrier (BBB), so as to evaluate the integrity of blood-brain barrier. Both experiments were tested with the optimal dose of each drug previously determined: TG-028 (5 mg/Kg), Salvianolate (20 mg/Kg), Clopidogrel bisulfate (40 mg/Kg), Edaravone (40 mg/Kg).

As a reminder, the ED50 is the dose at which the effect has come halfway, by size or by number of responders.

SMILES strings stand for the structures.

Regarding `COc1ccc(CCCCO[C@@H]2O[C@H](CO)[C@@H](O)[C@H](O)[C@H]2O)cc1` [TG-028], the “VEGF-A mRNA expression level relative to blank control without drugs” value in experiment [1] (11.74 mg/kg/d, sustained-release gel, mice) was “more than 6 times”; in experiment [1] (23.48 mg/kg/d, sustained-release gel, mice), “more than 6 times”. In experiment [1], the “activity in promoting VEGF-A mRNA expression compared with Salvianolate (in words)” value is given as “significantly higher than that of Salvianolate”. The “effect on inhibiting cerebral infarction (in words)” value in experiment [2] (MCAO, compared with the control drugs) was “most potent effect on inhibiting cerebral infarction in rats”. Besides, in experiment [2] (MCAO), the ED50 was 2.61 mg/kg. The “water content in brain, effect on reducing cerebral edema (in words)” value in experiment [2] (TG-028 5 mg/Kg, three days after MCAO, FIG. 6A) was “better effect on reducing cerebral edema after acute brain injury of MCAO in rats than Edaravone, Clopidogrel bisulfate, and Salvianolate”. Besides, the “integrity of blood-brain barrier, Evans Blue (in words)” value in experiment [2] (TG-028 5 mg/Kg, three days after MCAO, FIG. 6B) was “better protective effect on blood-brain barrier after acute brain injury of MCAO in rats than Edaravone and Salvianolate”. In experiment [2] (three days after MCAO), the “Longa nerve scoring, protective effect on nerves (in words)” value was “equivalent to that of Edaravone, Clopidogrel bisulfate, and Salvianolate”. In addition, the “rate of body weight change, protection (in words)” value in experiment [2] (three days after brain injury, FIG. 3) was “significant protection for rats in terms of the body weight after brain injury”.

In the case of `OC[C@H]1O[C@@H](OCCc2ccccc2)[C@H](O)[C@@H](O)[C@@H]1O` [TG-055], the “increase of expression level of VEGF-A mRNA compared with blank control without drugs” value in experiment [1] (19.48 mg/kg/d, sustained-release gel, mice) is “about 3 times”. Besides, in experiment [1], the “activity in promoting VEGF-A mRNA expression compared with Salvianolate (in words)” value is reported as “comparable to that of Salvianolate”. Besides, the 50% effective dose (ED50) in experiment [2] (MCAO) was 65.3 mg/kg. The “Longa nerve scoring, protective effect on nerves (in words)” value in experiment [2] (three days after MCAO) is “equivalent to that of Edaravone, Clopidogrel bisulfate, and Salvianolate”.
